Test results as given in ChEMBL document CHEMBL3792338, “Discovery of biaryls as RORγ inverse agonists by using structure-based design” (Bioorg Med Chem Lett, 2016).
Values after ≈ are worked out from the molar mass of the structure shown.

Key:
[1] = molecular target: T1, Nuclear receptor ROR-alpha (Homo sapiens, UniProt P35398); assay: Inverse agonist activity at human ROR-alpha transfected in HEK293T cells by Gal4 luciferase reporter gene assay; type: cell-based, HEK-293T
T1 sequence (P35398 whole entry): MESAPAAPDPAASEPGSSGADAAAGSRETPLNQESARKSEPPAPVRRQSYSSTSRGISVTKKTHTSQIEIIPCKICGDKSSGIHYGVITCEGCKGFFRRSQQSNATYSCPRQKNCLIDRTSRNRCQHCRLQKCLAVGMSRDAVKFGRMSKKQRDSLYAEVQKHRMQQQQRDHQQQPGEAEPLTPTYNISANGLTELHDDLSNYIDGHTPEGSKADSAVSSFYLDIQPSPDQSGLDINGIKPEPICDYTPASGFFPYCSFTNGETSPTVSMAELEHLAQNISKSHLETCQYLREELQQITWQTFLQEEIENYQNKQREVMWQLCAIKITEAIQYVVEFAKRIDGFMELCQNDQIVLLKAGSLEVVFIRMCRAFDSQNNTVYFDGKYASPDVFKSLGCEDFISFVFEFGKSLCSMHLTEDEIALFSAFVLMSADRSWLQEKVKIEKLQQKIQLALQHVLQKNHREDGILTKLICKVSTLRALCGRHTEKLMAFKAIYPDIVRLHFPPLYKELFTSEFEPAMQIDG

[2] = molecular target: T2, Nuclear receptor ROR-beta (Homo sapiens, UniProt Q92753); assay: Inverse agonist activity at human ROR-beta transfected in HEK293T cells by Gal4 luciferase reporter gene assay; type: cell-based, HEK-293T
T2 sequence (Q92753 whole entry): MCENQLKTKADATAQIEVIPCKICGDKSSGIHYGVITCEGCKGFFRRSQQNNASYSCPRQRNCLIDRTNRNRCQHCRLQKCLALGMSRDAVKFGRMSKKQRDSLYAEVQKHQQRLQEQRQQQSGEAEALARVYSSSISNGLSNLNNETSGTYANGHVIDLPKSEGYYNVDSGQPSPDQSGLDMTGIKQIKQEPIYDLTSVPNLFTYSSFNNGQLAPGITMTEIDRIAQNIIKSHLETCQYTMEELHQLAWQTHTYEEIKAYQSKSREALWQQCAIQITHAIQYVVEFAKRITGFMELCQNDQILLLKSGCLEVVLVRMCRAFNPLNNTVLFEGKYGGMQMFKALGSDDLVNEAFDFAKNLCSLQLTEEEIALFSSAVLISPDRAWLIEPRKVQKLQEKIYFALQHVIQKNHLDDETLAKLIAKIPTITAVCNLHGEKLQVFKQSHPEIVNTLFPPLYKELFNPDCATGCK

[3] = Aqueous solubility of compound at pH 6.8; type: physicochemical
[4] = molecular target: T3, Nuclear receptor ROR-gamma (Homo sapiens, UniProt P51449); assay: Inverse agonist activity at recombinant human GST-tagged ROR-gamma receptor ligand binding domain assessed as inhibition of receptor and co-activator TRAP220 interaction by FRET assay
T3 sequence (P51449 whole entry): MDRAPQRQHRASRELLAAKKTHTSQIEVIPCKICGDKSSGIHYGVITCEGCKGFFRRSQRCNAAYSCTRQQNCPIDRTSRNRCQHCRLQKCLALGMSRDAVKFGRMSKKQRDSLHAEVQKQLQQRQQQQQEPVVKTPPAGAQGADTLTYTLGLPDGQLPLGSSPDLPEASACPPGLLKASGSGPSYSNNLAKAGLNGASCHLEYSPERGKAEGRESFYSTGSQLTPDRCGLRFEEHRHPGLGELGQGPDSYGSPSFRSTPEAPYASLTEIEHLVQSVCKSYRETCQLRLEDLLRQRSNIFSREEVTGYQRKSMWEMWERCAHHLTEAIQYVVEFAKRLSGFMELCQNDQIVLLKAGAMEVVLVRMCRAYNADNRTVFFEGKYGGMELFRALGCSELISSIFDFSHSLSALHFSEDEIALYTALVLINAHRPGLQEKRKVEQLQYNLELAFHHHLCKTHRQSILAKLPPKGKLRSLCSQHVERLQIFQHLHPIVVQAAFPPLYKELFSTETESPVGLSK

[5] = molecular target: T4, Nuclear receptor subfamily 1 group I member 2 (Homo sapiens, UniProt O75469); assay: Agonist activity at PXR (unknown origin) at 10 uM
T4 sequence (O75469 whole entry): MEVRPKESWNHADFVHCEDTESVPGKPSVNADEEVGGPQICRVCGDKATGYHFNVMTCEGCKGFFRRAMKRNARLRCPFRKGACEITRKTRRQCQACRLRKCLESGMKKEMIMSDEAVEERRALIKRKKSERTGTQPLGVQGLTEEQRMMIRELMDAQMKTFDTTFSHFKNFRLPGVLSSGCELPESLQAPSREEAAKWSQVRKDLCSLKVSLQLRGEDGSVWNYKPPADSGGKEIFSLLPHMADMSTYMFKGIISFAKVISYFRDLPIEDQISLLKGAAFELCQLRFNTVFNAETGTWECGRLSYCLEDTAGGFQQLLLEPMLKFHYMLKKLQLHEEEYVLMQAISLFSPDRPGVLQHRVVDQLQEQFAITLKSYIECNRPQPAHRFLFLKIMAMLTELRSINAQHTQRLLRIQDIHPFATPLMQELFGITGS

[6] = molecular target: Liver X receptor (Homo sapiens) (UniProt Q13133+P55055); assay: Agonist activity at LXR (unknown origin) at 10 uM; type: protein assay
[7] = molecular target: T5, Bile acid receptor (Homo sapiens) (UniProt Q96RI1); assay: Agonist activity at FXR (unknown origin) at 10 uM
T5 sequence (whole entry): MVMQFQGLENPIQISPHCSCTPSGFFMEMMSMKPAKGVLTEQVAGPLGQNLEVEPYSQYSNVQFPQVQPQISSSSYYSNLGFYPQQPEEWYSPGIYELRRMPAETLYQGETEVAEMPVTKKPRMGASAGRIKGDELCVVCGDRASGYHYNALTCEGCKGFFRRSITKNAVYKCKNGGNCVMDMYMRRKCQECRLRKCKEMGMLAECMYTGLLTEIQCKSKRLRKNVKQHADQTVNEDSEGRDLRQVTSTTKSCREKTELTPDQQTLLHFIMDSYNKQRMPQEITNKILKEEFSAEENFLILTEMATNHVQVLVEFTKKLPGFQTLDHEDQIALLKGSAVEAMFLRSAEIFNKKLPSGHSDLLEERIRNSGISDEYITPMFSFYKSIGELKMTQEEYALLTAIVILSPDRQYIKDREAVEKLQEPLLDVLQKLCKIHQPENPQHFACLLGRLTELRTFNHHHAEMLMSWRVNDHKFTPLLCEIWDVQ

Cytochrome P450 3A4 = Cytochrome P450 3A4 (Homo sapiens, UniProt P08684); assay: Inhibition of CYP3A4 (unknown origin); type: ADME
Sequence of Cytochrome P450 3A4 (P08684 whole entry): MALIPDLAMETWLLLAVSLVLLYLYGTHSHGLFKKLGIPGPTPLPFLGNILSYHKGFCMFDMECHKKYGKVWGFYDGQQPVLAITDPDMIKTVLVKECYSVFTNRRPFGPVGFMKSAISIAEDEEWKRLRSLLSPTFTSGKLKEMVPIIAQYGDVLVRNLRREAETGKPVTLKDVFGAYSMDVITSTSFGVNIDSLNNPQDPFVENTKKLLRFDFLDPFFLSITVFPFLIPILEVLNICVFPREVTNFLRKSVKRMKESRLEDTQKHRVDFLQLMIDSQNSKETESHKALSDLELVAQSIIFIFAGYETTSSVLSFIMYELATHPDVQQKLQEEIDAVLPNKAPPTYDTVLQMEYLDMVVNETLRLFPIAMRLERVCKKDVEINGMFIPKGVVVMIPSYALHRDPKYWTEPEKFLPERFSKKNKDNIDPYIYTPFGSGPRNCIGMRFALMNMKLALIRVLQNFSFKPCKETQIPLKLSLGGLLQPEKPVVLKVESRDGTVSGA

[8] = molecular target: T4, Nuclear receptor subfamily 1 group I member 2; assay: Agonist activity at PXR (unknown origin)

Structure (SMILES) | IC50 [4] [nM] | further results
NC(=O)c1ccc(Cl)c(-c2ccc3c(c2)CCCN3C(=O)c2c(F)cccc2Cl)c1 |  | EC50 [1]: 390 nM; EC50 [2]: 1100 nM; solubility ([3]; aqueous, read-out: solubility): 0.04 µg/mL (≈ 0.0902 µM)
NC(=O)c1ccccc1-c1ccc2c(c1)CCCN2C(=O)c1c(F)cccc1Cl | > 10000 | 
CNC(=O)c1cccc(-c2ccc(N(CC(F)(F)F)S(=O)(=O)c3cccc(Cl)c3)cc2)c1 | > 10000 | 
CNS(=O)(=O)c1cccc(-c2ccc3c(c2)CCCN3C(=O)c2c(F)cccc2Cl)c1 | 6400 | 
NC(=O)c1cccc(-c2ccc(N(CC(F)(F)F)S(=O)(=O)c3cccc(Cl)c3)cc2)c1 | 3800 | 
CNC(=O)c1ccc(F)c(-c2ccc(N(CC(F)(F)F)S(=O)(=O)c3cccc(Cl)c3)cc2)c1 | 7800 | 
Cc1cc(CO)ccc1-c1ccc(N(CC(F)(F)F)S(=O)(=O)c2cccc(Cl)c2)cc1 | 6500 | 
CNC(=O)c1ccc(F)c(-c2ccc(N(CC(F)(F)F)S(=O)(=O)c3cccc4c3ccn4C)cc2)c1 | 4700 | 
Cc1cc2nccn2cc1-c1ccc(N(CC(F)(F)F)S(=O)(=O)c2cccc3c2ccn3C)cc1 | 2800 | 
NS(=O)(=O)c1cccc(-c2ccc3c(c2)CCCN3C(=O)c2c(F)cccc2Cl)c1 | 10000 | 
Cc1cc(C2(C(=O)O)CC2)ccc1-c1ccc(N(CC(F)(F)F)S(=O)(=O)c2cccc(Cl)c2)cc1 | > 10000 | 
CNC(=O)c1cccc(-c2ccc(N(CC(F)(F)F)S(=O)(=O)c3cccc4c3ccn4C)cc2)c1 | 3200 | 
O=C(c1cc(F)cc(-c2ccc3c(c2)CCCN3C(=O)c2c(F)cccc2Cl)c1)N1CCOCC1 | 8100 | 
NC(=O)c1ccc(Cl)c(-c2ccc(N(CC(F)(F)F)S(=O)(=O)c3cccc(Cl)c3)cc2)c1 | 4200 | 

More lines, in order of falling IC50 [4], values ahead:

IC50 [4] [nM] | Structure (SMILES) | further results
1900 | O=C(c1ccc(F)c(-c2ccc3c(c2)CCCN3C(=O)c2c(F)cccc2Cl)c1)N1CCCC1 | 
1500 | Cn1ccc2c(S(=O)(=O)N(CC(F)(F)F)c3ccc(-c4cccc(C(N)=O)c4)cc3)cccc21 | 
1470 | Cc1ccc(S(=O)(=O)Nc2ccc3c(c2)CCCN3C(=O)c2cccs2)cc1C | 
910 | Cc1cc(C2(C(=O)O)CC2)ccc1-c1ccc(N(CC(F)(F)F)S(=O)(=O)c2cccc3c2ccn3C)cc1 | 
630 | Cc1cc(CO)ccc1-c1ccc(N(CC(F)(F)F)S(=O)(=O)c2cccc3c2ccn3C)cc1 | 
520 | Cc1cc2nccn2cc1-c1ccc(N(CC(F)(F)F)S(=O)(=O)c2cccc(Cl)c2)cc1 | 
520 | Cc1cc(O)ccc1-c1ccc(N(CC(F)(F)F)S(=O)(=O)c2cccc(Cl)c2)cc1 | 
210 | Cc1cc(O)ccc1-c1ccc(N(CC(F)(F)F)S(=O)(=O)c2cccc3c2ccn3C)cc1 | 
200 | Cc1ccc(S(=O)(=O)N(CC(F)(F)F)c2ccc3c(c2)CCCN3C(=O)c2cccs2)cc1C | 
72 | O=S(=O)(c1cccc(Cl)c1)N(CC(F)(F)F)c1ccc(C(O)(C(F)(F)F)C(F)(F)F)cc1 | solubility ([3]; aqueous, read-out: solubility): < 0.5 µg/mL; Activity [5]: 100%; Activity [6]: 100%; Activity [7]: 100%
72 | Cn1ccc2c(S(=O)(=O)N(CC(F)(F)F)c3ccc(C(O)(C(F)(F)F)C(F)(F)F)cc3)cccc21 | solubility ([3]; aqueous, read-out: solubility): < 0.5 µg/mL; Activity [5]: 100%; Activity [6]: 100%; Activity [7]: 100%
56 | Cn1ccc2c(S(=O)(=O)N(CC(F)(F)F)c3ccc4c(c3)CCCN4C(=O)c3cccs3)cccc21 | 
10 | Cc1ccc(S(=O)(=O)N(CC(F)(F)F)c2ccc3c(c2)CCCN3C(=O)c2c(F)cccc2Cl)cc1C | solubility ([3]; buffer): Insoluble; inhibition (INH) (Cytochrome P450 3A4): Active; Activity [8]: Active
